Experimental findings from patent publication EP0002259B1, “Hydantoin derivatives and salts thereof, their synthesis and pharmaceutical formulations” (THE WELLCOME FOUNDATION LIMITED, priority 1977, dated 1979) are described below.

Data set [1] is described as follows: Solubility in volatile solvent (tablet formulation). The following applies: methanol, ethanol. It is filed as physicochemical. The method, then:
The compound was dissolved in a volatile solvent. […] The mixture was then pressed to tablets, each 226 mg in weight.

The subject of data set [2] is platelets in fresh human platelet rich plasma (PRP). In words: Inhibition of platelet aggregation (ADP-stimulated, Born aggregometer), activity compared to PGE1. It is filed as cell-based. The following applies: 37°C for 1 minute, ADP 5 µm. As for the experimental part:
Aggregation of platelets in 1 ml of fresh human platelet rich plasma (PRP) was monitored in a Born aggregometer.
The compound to be tested was added to the PRP at the desired concentration, and the resulting mixture incubated at 37°C for 1 minute after which platelet aggregation was stimulated by the addition of adenosine diphosphate (ADP) to a concentration of 5 µm.
The antiaggregatory effect of the compound was assessed by measuring the percentage inhibition of platelet aggregation in the presence of the compound as compared with when it was absent. The percentage inhibitions at various concentrations of hydantoin and prostaglandin E, (PGE,) were established and compared to show activity compared to PGE,.

Data set [3] deals with Male normotensive rats Wistar (Charles River) strain. Kind of data set: Cardiovascular effects in anaesthetised rats (hypotensive effect compared with prostacyclin). It is filed as in vivo. Particulars: intravenous injection in physiological saline. As for the experimental part: Male normotensive rats Wistar (Charles River) strain, ([…]) were anesthetised (chloroform) prior to cannulation to left femoral vein and anaestesia maintained by intravenous chloralose (60 mg/kg). Pulsatile blood pressure was recorded from the left femoral artery with an electronic transducer (Bell and Howell Type 4-327 L221) and integrated heart rate was measured with a cardiotachometer triggered from the arterial pressure waves.
The test compound (less polar diastereomer of the compounds of Example 2) was administered as a solution in physiological saline by intravenous injection via the femoral cannula. The responses recorded were allowed to return to the preinjection levels between successive administrations.

On to `O=C(O)CCCCCCC1C(=O)NC(=S)N1CCC(O)C1CCCCC1` (single isomer, unassigned) [Example 3 less, 5-(6-carboxyhexyl)-l-(3-cyclohexyl-3-hydroxypropyl)-2-thiohydantoin], for which, in data set [1], the solubility entry is “soluble in methanol and in ethanol”.

As for `CCCCCC(O)CCN1C(=S)NC(=O)C1CCCCCCC(=O)O` (centres unmarked) [Example 1 more, 5-(6-carboxyhexyl)-1-(3-hydroxyoctyl)-2-thiohydantoin], the “Inhibition of Platelet Aggregation (X PGE1)” value (“Inhibition” below) in data set [2] (activity relative to PGE1) is recorded as <0,01 X PGE1. On to `CC(C)(C)CC(O)CCN1C(=S)NC(=O)C1CCCCCCC(=O)O` (centres unmarked) [Example 2 less, 5-(6-carboxyhexyl)-1-(5,5-dimethyl-3-hydroxyhexyl)-2-thiohydantoin], for which, in data set [2] (activity relative to PGE1, listed as 2 less), the “Inhibition” value is recorded as 0,04 X PGE1. In addition, in data set [3], the “hypotensive effect, per cent of the hypotensive effect of prostacyclin” value is “less than one”. Consider `CC(C)(C)CC(O)CCN1C(=S)NC(=O)C1CCCCCCC(=O)O` (centres unmarked) [Example 2 more, 5-(6-carboxyhexyl)-1-(5,5-dimethyl-3-hydroxyhexyl)-2-thiohydantoin], for which the “Inhibition” value in data set [2] (activity relative to PGE1, listed as 2 more) is reported as 0,01 X PGE1. As for `O=C(O)CCCCCCC1C(=O)NC(=S)N1CCC(O)C1CCCC1` (centres unmarked) [Example 5 less, 5-(6-carboxyhexyl)-1-(3-cyclopentyl-3-hydroxypropyl)-2-thiohydantoin], the “Inhibition” value in data set [2] (activity relative to PGE1) is 0,03 X PGE1. On to `O=C(O)CCC/C=C\CC1C(=O)NC(=S)N1CCC(O)C1CCCCC1` (centres unmarked) [Example 6 less, 5-(6-carboxyhex-2Zenyl)-1-(3-cyclohexyl-3-hydroxypropyl)-2-thiohydantoin], for which the “Inhibition” value in data set [2] (activity relative to PGE1, listed as 6 less) is recorded as 0,04 X PGE1.

For `O=C(O)CCC/C=C\CC1C(=O)NC(=S)N1CCC(O)C1CCCCC1` (centres unmarked) [Example 6 more, 5-(6-carboxyhex-2Zenyl)-1-(3-cyclohexyl-3-hydroxypropyl)-2-thiohydantoin], the “Inhibition” value in data set [2] (activity relative to PGE1, listed as 6 more) was 0,02 X PGE1.
